Data from patent publication US20210045385A1, “PYRIDAZINONE-SUBSTITUTED KETOXIMES AS HERBICIDES” (FMC Corporation, priority 2018, published 2021).

Columns and labels:
Type in all cases: in vivo
[1] = tested on: Italian ryegrass (Lolium multiflorum); test: Test A preemergence, visual plant response rating; settings: for Ryegrass, Italian plant response rating: 125 g ai/ha, preemergence, 0 to 100 scale, 0 no effect, 100 complete control; for Ryegrass, Italian plant response rating (0 to 100 scale): 500 g ai/ha Preemergence, approx. 10 days
Method in brief: (§1)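 Formulated in a non-phytotoxic solvent mixture including surfactant, each test chemical was sprayed onto the soil surface after sowing, or onto seedlings 2 to 10 cm high. Roughly 10 days later, plants were compared with untreated controls and rated for injury from 0 (no effect) to 100 (complete control).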

[2] = tested on: barnyardgrass (Echinochloa crus-galli); test: Test A preemergence, visual plant response rating; settings: for Barnyardgrass plant response rating: 125 g ai/ha, preemergence, 0 to 100 scale, 0 no effect, 100 complete control; for Barnyardgrass plant response rating (0 to 100 scale): 500 g ai/ha Preemergence, approx. 10 days
Method in brief: as §1

[3] = tested on: foxtail, giant (giant foxtail, Setaria faberii); test: Test A preemergence, visual plant response rating; settings: for Foxtail, Giant plant response rating: 125 g ai/ha, preemergence, 0 to 100 scale, 0 no effect, 100 complete control; for Foxtail, Giant plant response rating (0 to 100 scale): 500 g ai/ha Preemergence, approx. 10 days
Method in brief: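 Greenhouse pot test in loam–sand soil mix: compound in a surfactant-containing non-phytotoxic solvent applied preemergence (directed soil spray) or postemergence (one- to two-leaf plants, 2–10 cm). Injury scored visually after ~10 days, 0–100.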

kochia (Kochia scoparia) [4] = test: Test A preemergence, visual plant response rating; settings: for Kochia plant response rating: 125 g ai/ha, preemergence, 0 to 100 scale, 0 no effect, 100 complete control; for Kochia plant response rating (0 to 100 scale): 500 g ai/ha Preemergence, approx. 10 days
Method in brief: as §1

[5] = tested on: pigweed (Amaranthus retroflexus); test: Test A preemergence, visual plant response rating; settings: for Pigweed plant response rating: 125 g ai/ha, preemergence, 0 to 100 scale, 0 no effect, 100 complete control; for Pigweed plant response rating (0 to 100 scale): 500 g ai/ha Preemergence, approx. 10 days
Method in brief: as §1

[6] = tested on: ragweed (common ragweed, Ambrosia elatior); test: Test A preemergence, visual plant response rating; settings: for Ragweed plant response rating: 125 g ai/ha, preemergence, 0 to 100 scale, 0 no effect, 100 complete control; for Ragweed plant response rating (0 to 100 scale): 500 g ai/ha Preemergence, approx. 10 days
Method in brief: as §1

[7] = tested on: Italian ryegrass (Lolium multiflorum); test: Test A postemergence, visual plant response rating; settings: for Ryegrass, Italian plant response rating (0 to 100 scale): 500 g ai/ha, postemergence, 0 is no effect, 100 is complete control; for Ryegrass, Italian plant response rating: Postemergence, 125 g ai/ha, 0 to 100 scale (0 no effect, 100 complete control)
Method in brief: as §1

[8] = tested on: barnyardgrass (Echinochloa crus-galli); test: Test A postemergence, visual plant response rating; settings: for Barnyardgrass plant response rating (0 to 100 scale): 500 g ai/ha, postemergence, 0 is no effect, 100 is complete control; for Barnyardgrass plant response rating: Postemergence, 125 g ai/ha, 0 to 100 scale (0 no effect, 100 complete control)
Method in brief: as §1

[9] = tested on: blackgrass (Alopecurus myosuroides); test: Test A postemergence, visual plant response rating; settings: for Blackgrass plant response rating (0 to 100 scale): 500 g ai/ha, postemergence, 0 is no effect, 100 is complete control; for Blackgrass plant response rating: Postemergence, 125 g ai/ha, 0 to 100 scale (0 no effect, 100 complete control)
Method in brief: as §1

corn (Zea mays) = test: Test A postemergence, visual plant response rating; settings: for Corn plant response rating (0 to 100 scale): 500 g ai/ha, postemergence, 0 is no effect, 100 is complete control; for Corn plant response rating: Postemergence, 125 g ai/ha, 0 to 100 scale (0 no effect, 100 complete control)
Method in brief: as §1

[10] = tested on: foxtail, giant (giant foxtail, Setaria faberii); test: Test A postemergence, visual plant response rating; settings: for Foxtail, Giant plant response rating (0 to 100 scale): 500 g ai/ha, postemergence, 0 is no effect, 100 is complete control; for Foxtail, Giant plant response rating: Postemergence, 125 g ai/ha, 0 to 100 scale (0 no effect, 100 complete control)
Method in brief: as §1

[11] = tested on: galium (catchweed bedstraw, Galium aparine); test: Test A postemergence, visual plant response rating; settings: for Galium plant response rating (0 to 100 scale): 500 g ai/ha, postemergence, 0 is no effect, 100 is complete control; for Galium plant response rating: Postemergence, 125 g ai/ha, 0 to 100 scale (0 no effect, 100 complete control)
Method in brief: as §1

kochia (Kochia scoparia) [12] = test: Test A postemergence, visual plant response rating; settings: for Kochia plant response rating (0 to 100 scale): 500 g ai/ha, postemergence, 0 is no effect, 100 is complete control; for Kochia plant response rating: Postemergence, 125 g ai/ha, 0 to 100 scale (0 no effect, 100 complete control)
Method in brief: as §1

[13] = tested on: pigweed (Amaranthus retroflexus); test: Test A postemergence, visual plant response rating; settings: for Pigweed plant response rating (0 to 100 scale): 500 g ai/ha, postemergence, 0 is no effect, 100 is complete control; for Pigweed plant response rating: Postemergence, 125 g ai/ha, 0 to 100 scale (0 no effect, 100 complete control)
Method in brief: as §1

[14] = tested on: ragweed (common ragweed, Ambrosia elatior); test: Test A postemergence, visual plant response rating; settings: for Ragweed plant response rating (0 to 100 scale): 500 g ai/ha, postemergence, 0 is no effect, 100 is complete control; for Ragweed plant response rating: Postemergence, 125 g ai/ha, 0 to 100 scale (0 no effect, 100 complete control)
Method in brief: as §1

[15] = tested on: wheat (Triticum aestivum); test: Test A postemergence, visual plant response rating; settings: for Wheat plant response rating (0 to 100 scale): 500 g ai/ha, postemergence, 0 is no effect, 100 is complete control; for Wheat plant response rating: Postemergence, 125 g ai/ha, 0 to 100 scale (0 no effect, 100 complete control)
Method in brief: as §1

[16] = tested on: barnyardgrass (Echinochloa crus-galli); test: Test B flooded paddy test, visual plant response rating; settings: 250 g ai/ha, Flood, applied to paddy water, 2-leaf stage, evaluated after 13 to 15 days
Method in brief: (§2)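 Plants were raised to the 2-leaf stage, then pots were flooded to 3 cm above the soil and test compound was applied directly into the paddy water. Water depth was held for the whole test; after 13 to 15 days in a greenhouse, responses were scored visually against controls.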

[17] = tested on: ducksalad (Heteranhera limosa); test: as above; settings: 250 g ai/ha, Flood, applied to paddy water, 2-leaf stage, evaluated after 13 to 15 days
Method in brief: as §2

rice (Oryza sativa) = test: as above; settings: 250 g ai/ha, Flood, applied to paddy water, 2-leaf stage, evaluated after 13 to 15 days
Method in brief: as §2

[18] = tested on: sedge, umbrella (small-flower umbrella sedge, Cyperus difformis); test: as above; settings: 250 g ai/ha, Flood, applied to paddy water, 2-leaf stage, evaluated after 13 to 15 days
Method in brief: as §2

Compound: CON=C(c1cccc(C)c1F)c1c(O)c(C)nn(C)c1=O [Compound 70]
- Ryegrass, Italian plant response rating [1]: 0
- Ryegrass, Italian plant response rating (0 to 100 scale) [1]: 10
- Barnyardgrass plant response rating [2]: 0
- Barnyardgrass plant response rating (0 to 100 scale) [2]: 10
- Foxtail, Giant plant response rating [3]: 0
- Foxtail, Giant plant response rating (0 to 100 scale) [3]: 10
- Kochia plant response rating (kochia (Kochia scoparia) [4]): 0
- Kochia plant response rating (0 to 100 scale) (kochia (Kochia scoparia) [4]): 50
- Pigweed plant response rating [5]: 0
- Pigweed plant response rating (0 to 100 scale) [5]: 40
- Ragweed plant response rating [6]: 70
- Ragweed plant response rating (0 to 100 scale) [6]: 80
- Ryegrass, Italian plant response rating (0 to 100 scale) [7]: 70
- Ryegrass, Italian plant response rating [7]: 0
- Barnyardgrass plant response rating (0 to 100 scale) [8]: 30
- Barnyardgrass plant response rating [8]: 0
- Blackgrass plant response rating (0 to 100 scale) [9]: 30
- Blackgrass plant response rating [9]: 0
- Corn plant response rating (0 to 100 scale) (corn (Zea mays)): 0
- Corn plant response rating (corn (Zea mays)): 0
- Foxtail, Giant plant response rating (0 to 100 scale) [10]: 40
- Foxtail, Giant plant response rating [10]: 0
- Galium plant response rating (0 to 100 scale) [11]: 80
- Galium plant response rating [11]: 70
- Kochia plant response rating (0 to 100 scale) (kochia (Kochia scoparia) [12]): 80
- Kochia plant response rating (kochia (Kochia scoparia) [12]): 70
- Pigweed plant response rating (0 to 100 scale) [13]: 90
- Pigweed plant response rating [13]: 80
- Ragweed plant response rating (0 to 100 scale) [14]: 80
- Ragweed plant response rating [14]: 80
- Wheat plant response rating (0 to 100 scale) [15]: 0
- Wheat plant response rating [15]: 0
- Plant response rating, Barnyardgrass (0 to 100 scale, 0 is no effect, 100 is complete control) [16]: 0
- Plant response rating, Ducksalad (0 to 100 scale, 0 is no effect, 100 is complete control) [17]: 0
- Plant response rating, Rice (0 to 100 scale, 0 is no effect, 100 is complete control) (rice (Oryza sativa)): 0
- Plant response rating, Sedge, Umbrella (0 to 100 scale, 0 is no effect, 100 is complete control) [18]: 0

Compound: CO/N=C(\c1cccc(C(F)(F)F)c1)c1c(O)c(C)nn(C)c1=O [Compound 71]
- Ryegrass, Italian plant response rating [1]: 0
- Ryegrass, Italian plant response rating (0 to 100 scale) [1]: 20
- Barnyardgrass plant response rating [2]: 0
- Barnyardgrass plant response rating (0 to 100 scale) [2]: 0
- Foxtail, Giant plant response rating [3]: 0
- Foxtail, Giant plant response rating (0 to 100 scale) [3]: 0
- Kochia plant response rating (kochia (Kochia scoparia) [4]): 0
- Kochia plant response rating (0 to 100 scale) (kochia (Kochia scoparia) [4]): 0
- Pigweed plant response rating [5]: 20
- Pigweed plant response rating (0 to 100 scale) [5]: 60
- Ragweed plant response rating [6]: 10
- Ragweed plant response rating (0 to 100 scale) [6]: 30
- Ryegrass, Italian plant response rating (0 to 100 scale) [7]: 40
- Ryegrass, Italian plant response rating [7]: 40
- Barnyardgrass plant response rating (0 to 100 scale) [8]: 30
- Barnyardgrass plant response rating [8]: 10
- Blackgrass plant response rating (0 to 100 scale) [9]: 50
- Blackgrass plant response rating [9]: 20
- Corn plant response rating (0 to 100 scale) (corn (Zea mays)): 10
- Corn plant response rating (corn (Zea mays)): 0
- Foxtail, Giant plant response rating (0 to 100 scale) [10]: 20
- Foxtail, Giant plant response rating [10]: 10
- Galium plant response rating (0 to 100 scale) [11]: 80
- Galium plant response rating [11]: 60
- Kochia plant response rating (0 to 100 scale) (kochia (Kochia scoparia) [12]): 60
- Kochia plant response rating (kochia (Kochia scoparia) [12]): 50
- Pigweed plant response rating (0 to 100 scale) [13]: 70
- Pigweed plant response rating [13]: 60
- Ragweed plant response rating (0 to 100 scale) [14]: 60
- Ragweed plant response rating [14]: 20
- Wheat plant response rating (0 to 100 scale) [15]: 40
- Wheat plant response rating [15]: 20
- Plant response rating, Barnyardgrass (0 to 100 scale, 0 is no effect, 100 is complete control) [16]: 0
- Plant response rating, Ducksalad (0 to 100 scale, 0 is no effect, 100 is complete control) [17]: 0
- Plant response rating, Rice (0 to 100 scale, 0 is no effect, 100 is complete control) (rice (Oryza sativa)): 10
- Plant response rating, Sedge, Umbrella (0 to 100 scale, 0 is no effect, 100 is complete control) [18]: 0
